For orientation: IC50 means the midpoint of a concentration-inhibition curve.

Active and inactive are the calls of the source.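 Rule for the calls: active = in confirmatory dose-response testing, peak deubiquitinase inhibition of 30% or more; inactive = the rest.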

The assay concerns the target Ubiquitin carboxyl-terminal hydrolase 28 (Homo sapiens) (UniProt Q96RU2). In words: Concentration-response biochemical assay confirming initial hits as inhibitors of ubiquitin-specific protease 28 (AID 1645866). Particulars: purified USP28, ubiquitin-rhodamine fluorescence, 30 min.

Ubiquitin carboxyl-terminal hydrolase 28 (Homo sapiens), sequence (Q96RU2 whole entry, looked up): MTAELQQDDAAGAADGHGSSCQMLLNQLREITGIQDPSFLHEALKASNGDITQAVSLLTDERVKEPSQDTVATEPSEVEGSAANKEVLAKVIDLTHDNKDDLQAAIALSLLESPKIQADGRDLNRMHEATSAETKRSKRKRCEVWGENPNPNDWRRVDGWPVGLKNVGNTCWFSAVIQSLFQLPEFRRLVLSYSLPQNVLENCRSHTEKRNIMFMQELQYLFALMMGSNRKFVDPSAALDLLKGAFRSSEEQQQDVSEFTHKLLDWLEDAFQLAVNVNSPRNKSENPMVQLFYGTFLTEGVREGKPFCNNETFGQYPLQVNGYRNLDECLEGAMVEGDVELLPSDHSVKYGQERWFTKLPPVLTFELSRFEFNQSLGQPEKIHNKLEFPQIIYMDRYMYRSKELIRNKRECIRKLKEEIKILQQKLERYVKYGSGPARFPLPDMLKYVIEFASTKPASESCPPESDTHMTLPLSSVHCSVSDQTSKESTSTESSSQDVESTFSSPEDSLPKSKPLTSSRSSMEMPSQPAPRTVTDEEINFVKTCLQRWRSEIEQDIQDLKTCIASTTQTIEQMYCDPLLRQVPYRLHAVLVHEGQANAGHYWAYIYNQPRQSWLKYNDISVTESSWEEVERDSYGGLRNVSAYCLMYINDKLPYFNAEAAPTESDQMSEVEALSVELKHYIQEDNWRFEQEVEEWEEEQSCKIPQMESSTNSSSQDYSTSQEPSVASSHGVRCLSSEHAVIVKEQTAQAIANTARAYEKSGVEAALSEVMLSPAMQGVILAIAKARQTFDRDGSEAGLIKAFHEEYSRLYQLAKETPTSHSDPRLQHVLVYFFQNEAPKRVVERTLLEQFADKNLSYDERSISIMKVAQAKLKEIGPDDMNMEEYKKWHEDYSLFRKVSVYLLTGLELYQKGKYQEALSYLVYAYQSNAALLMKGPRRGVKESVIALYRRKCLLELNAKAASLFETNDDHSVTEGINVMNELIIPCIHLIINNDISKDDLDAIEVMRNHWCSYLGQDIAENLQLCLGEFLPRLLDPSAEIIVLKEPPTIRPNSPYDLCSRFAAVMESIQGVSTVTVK

For `Cc1cc(C(=O)CSc2nc3ccccc3[nH]2)c(C)n1Cc1ccco1`, the IC50 is 36.2 µM.

With `O=C(CSc1nnc(CNC(=O)c2ccccc2F)o1)Nc1ccc(OC(F)(F)F)cc1`, the IC50 was 28.9 µM.

Regarding `CCOc1ccc(NC(=O)Cn2c(=O)n(CC(=O)NCc3ccc(C)cc3)c(=O)c3sccc32)cc1`, the IC50 is 8.61 µM.

Turning to `COC(=O)c1ccc(C(=O)Nc2cc3ccccc3cc2NC(=O)c2ccc(C(=O)OC)cc2)cc1`, the IC50 was 2.78 µM.

Turning to `O=C(Nc1nc2c(ccc3ccccc32)s1)c1cccc(Br)c1`, the IC50 was 9.32 µM.

As to `O=C(Nc1nnc2n1CCCS2)c1cccc(Cl)c1`, the IC50 was 1.19 µM.

As to `O=C(Nc1ncc2c(n1)-c1ccccc1CC2)C1CC1`, the IC50 was 17.6 µM.

Consider `CNC(=O)c1cc2nc(N(C)C)n(-c3ccccc3)c2s1`, for which the IC50 was 27.1 µM.

With `Cc1ccc(C(=O)c2cn(CC(=O)Nc3ccccc3)c3ccc(C)cc3c2=O)cc1`, the IC50 was 6 µM.

Regarding `O=C(CN1C=NC2=NS(=O)(=O)c3ccccc3N21)Nc1cc(F)ccc1F`, the half-inhibitory concentration (IC50) was 28 µM.

Turning to `CC1CCN(c2nc(F)c3c(c2F)S(=O)(=O)CCN3Cc2cccnc2)CC1`, the IC50 is > 50 µM (inactive).

In the case of `Cc1cc(C)c2cc(C(=O)NC3CCN(Cc4ccccc4)CC3)[nH]c2c1`, the IC50 is 13.8 µM.

For the compound `N#Cc1ccc(-c2ccc(OCC(=O)Nc3ccc4c(c3)OCO4)cc2)cc1`, the IC50 was 11.5 µM.

With `CCOC(=O)[C@@H]1[C@@H](c2ccccc2)CN2CCN(C(=O)c3cnccn3)C[C@H]12`, the IC50 is > 50 µM (inactive).

Turning to `O=C(NCCc1ccccn1)c1cc(-c2ccc(Br)cc2)n[nH]1`, the IC50 is 13.8 µM.

Take `C/C=C(\Cl)C1=CC(=O)[C@]23C[C@H]2[C@@]2(C)CO[C@@]1(O)[C@@]3(O)O2`: the IC50 was > 50 µM (inactive).

Consider `COc1cc(-c2ccno2)ccc1S(=O)(=O)Nc1ccccc1Cl`, for which the IC50 is 4.26 µM.

For `Cc1noc(-c2cccc(=O)n2CC(=O)Nc2ccc(C)c(C)c2)n1`, the IC50 was 17.4 µM.

Take `COc1ccc(C(=O)CSc2nnc(-c3cccnc3)n2-c2ccccc2)cc1`: the IC50 was > 50 µM (inactive).

As to `COc1ccc(-c2nc(Cn3nnc(C(=O)Nc4ccc(C)c(C)c4)c3N)c(C)o2)cc1`, the IC50 is 2.12 µM.

`CSc1ncccc1C(=O)NC1(O)C(=O)c2ccccc2C1=O`: the IC50 was 29 µM.

As for `COC(=O)c1cc2c(ccn2C)n1CC(=O)NC1CCCC1`, the IC50 is > 50 µM (inactive).

Regarding `COc1ccccc1C(=O)N1CCC(S(=O)(=O)c2ccc(-c3ccco3)cc2)CC1`, the IC50 is 42.9 µM.

As for `Nc1c(C(=O)c2cccs2)oc2nc(-c3ccccc3)cc(-c3ccco3)c12`, the IC50 is > 50 µM (inactive).

Regarding `COc1ccc(OC)c(NC(=O)C2=C(C)Nc3ncnn3C2c2ccccc2OCc2ccc(C)cc2)c1` (stereo not given), the IC50 was 19.9 µM.

For `COc1ccc(/C=C\c2nccc3c2[nH]c2ccccc23)cc1`, the IC50 was > 50 µM (inactive).

On to `O=C(Nc1cccc(Cl)c1)c1ncn2c1CNS(=O)(=O)c1ccccc1-2`, for which the IC50 is 13.4 µM.

For `Cc1ccc(-c2noc(-c3nnc(SCC(=O)NC4CCCC4)n3C)n2)cc1`, the IC50 entry is “inactive”.

In the case of `CCOC(=O)c1cnc(C(F)(F)F)nc1Sc1n[nH]c(-c2cccs2)n1`, the IC50 was > 50 µM (inactive).

Regarding `COC(=O)c1ccc(Cn2cnc3ccc(F)cc3c2=O)o1`, the IC50 is 3.97 µM.

As to `COc1ccc(C)cc1NC(=O)C1CC(=O)Nc2nc3ccccc3n21` (stereo not given), the IC50 was 24.4 µM.

Consider `O=C(CCCCn1c(=O)c2ccccc2n(Cc2ccccc2F)c1=O)NCCc1ccccc1`, for which the IC50 is 15.5 µM.

On to `CCCCc1nc2sc3c(SCC(=O)Nc4cccc(C)c4)ncnc3c2c2c1CCC2`, for which the IC50 is 14 µM.

As for `COc1ccc(Cn2cnc3c([nH]c4ccc(Br)cc43)c2=O)cc1`, the IC50 is 1.72 µM.

On to `COc1ccc(Nc2nc(C(=O)NCc3ccc4c(c3)OCO4)cc3occc23)cc1`, for which the IC50 was 4.91 µM.

With `O=c1ccc(-c2noc(Cc3c(F)cccc3Cl)n2)c[nH]1`, the IC50 is 0.516 µM.

As to `CC(C)C1Cc2c(sc3nc(SCC(=O)Nc4cccc5ccccc45)nc(N)c23)CO1` (stereo not given), the IC50 was 38.5 µM.

On to `C[C@@H](C(=O)NCc1ccc(F)cc1)N1C(=O)N2CCc3c([nH]c4ccccc34)[C@@]2(C)C1=O`, for which the IC50 was 14.9 µM.

For `COc1ccc(N2C(=O)[C@@H]3[C@H]4c5ccccc5C=CN4C(C(=O)Nc4ccc5c(c4)OCO5)[C@@H]3C2=O)cc1` (stereo not given in full), the IC50 is > 50 µM (inactive).

Consider `CCOC(=O)c1cccc(NC(=O)Nc2cccn3nc(C)nc23)c1`, for which the IC50 was 0.766 µM.

With `COc1cccc(C(=O)NCC(=O)Nc2nc3ccccc3[nH]2)c1`, the IC50 was 43.8 µM.

Turning to `COc1ccc2c(c1)c(N1CCCC1=O)c(C(=O)NCc1cccc(OC)c1OC)n2C`, the IC50 is > 50 µM (inactive).

For `CC(=O)Nc1ccc(S(=O)(=O)NCc2ccc(C(=O)NCc3ccc(C)cc3)cc2)cc1`, the IC50 is 19.2 µM.

`COc1ccc2nc(NC(=O)C(CC(C)C)NS(=O)(=O)c3ccc4c(c3)CCN4C(C)=O)sc2c1` (stereo not given): the IC50 is 26 µM.

For the compound `Cc1ccc(NC2=NC(c3ccco3)n3c(nc(C)cc3=O)N2)c(C)c1` (stereo not given), the IC50 was 8.38 µM.

As to `COC1=C(C2=C(OC)C(=O)c3cc4c(c(O)c3C2=O)C(=O)OC(C)C4)C(=O)c2c(cc3c(c2O)C(=O)OC(C)C3)C1=O` (stereo not given), the IC50 is 1.05 µM.

Take `Cn1nccc1C(=O)N1CCCCC1c1ncc(Cc2ccc(Cl)cc2)o1` (stereo not given): the IC50 is > 50 µM (inactive).

On to `COc1ccc(OC)c(NC(=O)CS(=O)(=O)c2cn(CC(=O)N3CCC(C)CC3)c3ccccc23)c1`, for which the IC50 is 25 µM.

On to `CC1CCCN1C(=O)c1ccn(-c2ccc3ccc(-c4cccnc4)cn23)n1` (stereo not given), for which the IC50 was > 50 µM (inactive).

`COc1ncccc1CN1CCn2c(Cn3cccn3)cnc2C1C` (stereo not given): the IC50 was > 50 µM (inactive).

Consider `Cc1sc2ncnc(OCc3ccc(F)cc3Cl)c2c1C`, for which the IC50 was 0.436 µM.

As for `Cc1sc2ncn3c(=O)n(CC(=O)Nc4ccc(F)c(Cl)c4)nc3c2c1C`, the IC50 is 3.14 µM.

`COc1ccc2cc3c(nc2c1)OC(=O)N(CCc1cccc(F)c1)C3`: the IC50 is 0.233 µM.

`Cc1nc(Nc2c3ccccc3nc3ccccc23)sc1C`: the IC50 was > 50 µM (inactive).

Regarding `CCOC(=O)CSc1nnc(-c2cnn(-c3ccccc3)c2N)o1`, the IC50 was 19.9 µM.

In the case of `COc1ccc(CC(=O)Nc2nc(-c3ccco3)c(-c3ccco3)s2)cc1`, the IC50 was > 5 µM (inactive).

`CC1(C)Cc2nc3sc4c(=O)n(CC(=O)NCc5ccccc5)cnc4c3cc2CO1`: the IC50 was 32.9 µM.

Consider `Cn1c(CCN2CCCC2)nc2cc(NS(=O)(=O)c3ccccc3)ccc21`, for which the IC50 is > 50 µM (inactive).

Take `COc1ccccc1C(=O)N1CCc2[nH]c3ccc(F)cc3c2C1`: the IC50 is > 50 µM (inactive).

As to `O=C(Cc1ccccc1F)N1CCC2(CC1)CC1(CO2)Nc2ccccc2-n2cccc21` (stereo not given), the IC50 was > 50 µM (inactive).

On to `O=C(COc1cccc2c1CCN(Cc1cccnc1)C2=O)Nc1ccc2c(c1)OCCO2`, for which the IC50 was 1.34 µM.

In the case of `COc1c(O)c(O)c2c(=O)cc(-c3ccc(O)cc3)oc2c1OC`, the IC50 was 27.2 µM.

For the compound `CSc1nc2ncn(CC(=O)Nc3cccc(Cl)c3)c(=O)c2s1`, the IC50 was > 50 µM (inactive).

Turning to `CCOc1ccc(NC(=O)Cn2c(=O)n(CCC(=O)NCc3ccccc3OC)c(=O)c3ccccc32)cc1`, the IC50 was 4.01 µM.

Regarding `CSc1ccccc1C(=O)Nc1nc(-c2ccncc2)cs1`, the IC50 is 31 µM.
